What was measured:
[1] = target: GDP-bound NRAS wild-type protein (Homo sapiens, UniProt P01111); assay: Binding to NRAS by surface plasmon resonance (SPR), KD and KD ratio to KRAS; settings: ratio of KD value for GDP-bound NRAS wild-type protein to KD value for KRAS (SPR)
Method in brief: (§1)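 Biotinylated GDP-bound RAS was captured at about 100–300 RU. Running buffer: HBS pH 7.4, 10 mM MgCl2, 10 µM GDP, 1 mM DTT, 0.01% Tween 20, 4% DMSO.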

HRAS wild-type protein = HRAS wild-type protein (Homo sapiens, UniProt P01112); assay: Binding to HRAS by surface plasmon resonance (SPR), KD and KD ratio to KRAS; settings: ratio of KD value for HRAS wild-type protein to KD value for KRAS (SPR)
HRAS wild-type protein, sequence (P01112 whole entry): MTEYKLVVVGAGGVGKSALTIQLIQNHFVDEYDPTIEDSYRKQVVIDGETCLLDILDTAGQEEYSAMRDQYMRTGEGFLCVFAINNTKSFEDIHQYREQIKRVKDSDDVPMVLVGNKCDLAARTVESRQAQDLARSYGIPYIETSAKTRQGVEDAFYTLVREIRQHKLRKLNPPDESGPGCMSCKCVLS
Method in brief: as §1

[2] = tested on: human lung cancer strain NCI-H441; type: cell-based
Method in brief: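 Step one: dispense the test compound in serial DMSO dilutions. Step three: add the reagent and measure […].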

GDP-bound NRAS wild-type protein, sequence (P01111 whole entry): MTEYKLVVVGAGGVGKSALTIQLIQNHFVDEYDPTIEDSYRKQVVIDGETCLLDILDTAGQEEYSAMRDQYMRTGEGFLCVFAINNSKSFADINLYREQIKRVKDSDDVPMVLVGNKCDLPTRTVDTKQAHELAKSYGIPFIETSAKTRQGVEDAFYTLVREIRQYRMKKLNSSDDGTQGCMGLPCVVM

SMILES | NRAS /KRAS [1] | HRAS /KRAS (HRAS wild-type protein) | IC50 [2]
CC[C@H](C)[C@@H]1NC(=O)[C@H](CC2CC2)N(C)C(=O)C[C@@H](C(=O)N(C)CC)N(C)C(=O)[C@H](C2CCCC2)N(C)C(=O)C2(CCC2)NC(=O)[C@@H]2C[C@H](C)CN2C(=O)[C@H](CCc2cc(F)c(C(F)(F)F)c(F)c2)NC(=O)CN(C)C(=O)[C@H](Cc2ccc(C(F)(F)F)cc2)N2CC/C=C\C[C@@H](C2=O)N(C)C(=O)CN(C)C1=O [PP1537] | AA (a compound having 20 or more is denoted as AA) | A (a compound having 10 or more and less than 20 is denoted as A) | 7.9 nM
CC[C@H](C)[C@@H]1NC(=O)[C@H](CC2CC2)N(C)C(=O)C[C@@H](C(=O)N(C)CC)N(C)C(=O)[C@H](C2CCCC2)N(C)C(=O)C2(CCC2)NC(=O)[C@@H]2CC(F)(F)CN2C(=O)[C@H](CCc2cc(F)c(C(F)(F)F)c(F)c2)NC(=O)CN(C)C(=O)[C@H](Cc2ccc(C(F)(F)F)cc2)N2CC/C=C\C[C@@H](C2=O)N(C)C(=O)CN(C)C1=O [PP1538] | A (a compound having 10 or more and less than 20 is denoted as A) | B (a compound having 3 or more and less than 10 is denoted as B) | 7.5 nM
CCO[C@@H]1C[C@H]2C(=O)NC3(CCC3)C(=O)N(C)[C@@H](C3CCCC3)C(=O)N(C)[C@H](C(=O)N(C)CC)CC(=O)N(C)[C@@H](CC)C(=O)N[C@@H]([C@@H](C)CC)C(=O)N(C)CC(=O)N(C)[C@H]3C/C=C\CCN(C3=O)[C@@H](CC3CCCCC3)C(=O)N(C)CC(=O)N[C@@H](CCc3cc(F)c(C(F)(F)F)c(F)c3)C(=O)N2C1 [PP1552] | A (a compound having 10 or more and less than 20 is denoted as A) | A (a compound having 10 or more and less than 20 is denoted as A) | 15.9 nM
CCO[C@@H]1C[C@H]2C(=O)NC3(CCC3)C(=O)N(C)[C@@H](C3CCCC3)C(=O)N(C)[C@H](C(=O)N(C)CC)CC(=O)N(C)[C@@H](CC)C(=O)N[C@@H]([C@@H](C)CC)C(=O)N(C)CC(=O)N(C)[C@H]3C/C=C\CCN(C3=O)[C@@H](CC3CCC(F)(F)CC3)C(=O)N(C)CC(=O)N[C@@H](CCc3cc(F)c(C(F)(F)F)c(F)c3)C(=O)N2C1 [PP1553] | A (a compound having 10 or more and less than 20 is denoted as A) | A (a compound having 10 or more and less than 20 is denoted as A) | 12.1 nM
CCO[C@@H]1C[C@H]2C(=O)NC3(CC(C)(C)C3)C(=O)N(C)[C@@H](C3CCCC3)C(=O)N(C)[C@H](C(=O)N(C)C)CC(=O)N(C)[C@@H](CC)C(=O)N[C@@H]([C@@H](C)CC)C(=O)N(C)CC(=O)N(C)[C@H]3C/C=C\CCN(C3=O)[C@@H](Cc3ccc(C(F)(F)F)cc3)C(=O)N(C)CC(=O)N[C@@H](CCc3ccc(C(F)(F)F)c(OC)c3)C(=O)N2C1 [PP1559] | A (a compound having 10 or more and less than 20 is denoted as A) | A (a compound having 10 or more and less than 20 is denoted as A) | 1.8 nM
CCC[C@H]1C(=O)N[C@@H]([C@@H](C)CC)C(=O)N(C)CC(=O)N(C)[C@H]2C/C=C\CCN(C2=O)[C@@H](Cc2ccc(C(F)(F)F)cc2)C(=O)N(C)CC(=O)N[C@@H](CCc2ccc(C(F)(F)F)c(OC)c2)C(=O)N2C[C@H](OCC)C[C@H]2C(=O)NC2(CC(C)(C)C2)C(=O)N(C)[C@@H](C2CCCC2)C(=O)N(C)[C@H](C(=O)N(C)C)CC(=O)N1C [PP1560] | A (a compound having 10 or more and less than 20 is denoted as A) | B (a compound having 3 or more and less than 10 is denoted as B) | 1.8 nM
CCO[C@@H]1C[C@H]2C(=O)NC3(CC(C)(C)C3)C(=O)N(C)[C@@H](C3CCCC3)C(=O)N(C)[C@H](C(=O)N(C)C)CC(=O)N(C)[C@@H](CC3CC3)C(=O)N[C@@H]([C@@H](C)CC)C(=O)N(C)CC(=O)N(C)[C@H]3C/C=C\CCN(C3=O)[C@@H](Cc3ccc(C(F)(F)F)cc3)C(=O)N(C)CC(=O)N[C@@H](CCc3ccc(C(F)(F)F)c(OC)c3)C(=O)N2C1 [PP1563] | A (a compound having 10 or more and less than 20 is denoted as A) | A (a compound having 10 or more and less than 20 is denoted as A) | 2.6 nM
CCO[C@@H]1C[C@H]2C(=O)NC3(CC(C)(C)C3)C(=O)N(C)[C@@H](C3CCCC3)C(=O)N(C)[C@H](C(=O)N(C)C)CC(=O)N(C)[C@@H](CC3CC3)C(=O)N[C@@H]([C@@H](C)CC)C(=O)N(C)CC(=O)N(C)[C@H]3C/C=C\CCN(C3=O)[C@@H](Cc3ccc(C(F)(F)F)cc3)C(=O)N(C)CC(=O)N[C@@H](CCc3cc(F)c(C(F)(F)F)c(F)c3)C(=O)N2C1 [PP1568] | A (a compound having 10 or more and less than 20 is denoted as A) | A (a compound having 10 or more and less than 20 is denoted as A) | 2.2 nM
CCCOC[C@H]1C(=O)N[C@@H]([C@@H](C)CC)C(=O)N(C)CC(=O)N(C)[C@H]2C/C=C\CCN(C2=O)[C@@H](Cc2ccc(C(F)(F)F)cc2)C(=O)N(C)CC(=O)N[C@@H](CCc2cc(F)c(C(F)(F)F)c(F)c2)C(=O)N2C[C@H](OCC)C[C@H]2C(=O)NC2(CCC2)C(=O)N(C)[C@@H](C2CCCC2)C(=O)N(C)[C@H](C(=O)N(C)CC)CC(=O)N1C [PP1569] | A (a compound having 10 or more and less than 20 is denoted as A) | B (a compound having 3 or more and less than 10 is denoted as B) | 2.8 nM
CC[C@H](C)[C@@H]1NC(=O)[C@H](CC2CC2)N(C)C(=O)C[C@@H](C(=O)N(C)CC)N(C)C(=O)[C@H](C2CCCC2)N(C)C(=O)C2(CC(C)(C)C2)NC(=O)[C@@H]2C[C@@H](F)CN2C(=O)[C@H](CCc2cc(F)c(C(F)(F)F)c(F)c2)NC(=O)CN(C)C(=O)[C@H](Cc2ccc(C(F)(F)F)cc2)N2CC/C=C\C[C@@H](C2=O)N(C)C(=O)CN(C)C1=O [PP1570] | AA (a compound having 20 or more is denoted as AA) | A (a compound having 10 or more and less than 20 is denoted as A) | 2.6 nM
CC[C@H](C)[C@@H]1NC(=O)[C@H](CC2CC2)N(C)C(=O)C[C@@H](C(=O)N(CC)CC)N(C)C(=O)[C@H](C2CCCC2)N(C)C(=O)C2(CC(C)(C)C2)NC(=O)[C@@H]2C[C@@H](F)CN2C(=O)[C@H](CCc2cc(F)c(C(F)(F)F)c(F)c2)NC(=O)CN(C)C(=O)[C@H](Cc2ccc(C(F)(F)F)cc2)N2CC/C=C\C[C@@H](C2=O)N(C)C(=O)CN(C)C1=O [PP1571] | A (a compound having 10 or more and less than 20 is denoted as A) | A (a compound having 10 or more and less than 20 is denoted as A) | 6.8 nM
CCCOC[C@H]1C(=O)N[C@@H]([C@@H](C)CC)C(=O)N(C)CC(=O)N(C)[C@H]2C/C=C\CCN(C2=O)[C@@H](Cc2ccc(C(F)(F)F)cc2)C(=O)N(C)CC(=O)N[C@@H](CCc2cc(F)c(C(F)(F)F)c(F)c2)C(=O)N2C[C@H](OCC)C[C@H]2C(=O)NC2(CC(C)(C)C2)C(=O)N(C)[C@@H](C2CCCC2)C(=O)N(C)[C@H](C(=O)N(C)CC)CC(=O)N1C [PP1572] | A (a compound having 10 or more and less than 20 is denoted as A) | A (a compound having 10 or more and less than 20 is denoted as A) | 3.6 nM
CCO[C@@H]1C[C@H]2C(=O)NC3(CCCC3)C(=O)N(C)[C@@H](C3CCCC3)C(=O)N(C)[C@H](C(=O)N(C)CC)CC(=O)N(C)[C@@H](CC(C)C)C(=O)N[C@@H]([C@@H](C)CC)C(=O)N(C)CC(=O)N(C)[C@H]3C/C=C\CCN(C3=O)[C@@H](Cc3ccc(C(F)(F)F)cc3)C(=O)N(C)CC(=O)N[C@@H](CCc3cc(F)c(C(F)(F)F)c(F)c3)C(=O)N2C1 [PP1574] | A (a compound having 10 or more and less than 20 is denoted as A) | A (a compound having 10 or more and less than 20 is denoted as A) | 6.5 nM
CCCOC[C@H]1C(=O)N[C@@H]([C@@H](C)CC)C(=O)N(C)CC(=O)N(C)[C@H]2C/C=C\CCN(C2=O)[C@@H](Cc2ccc(C(F)(F)F)cc2)C(=O)N(C)CC(=O)N[C@@H](CCc2cc(F)c(C(F)(F)F)c(F)c2)C(=O)N2C[C@H](OCC)C[C@H]2C(=O)NC2(CC(C)(C)C2)C(=O)N(C)[C@@H](C2CCCC2)C(=O)N(C)[C@H](C(=O)N(CC)CC)CC(=O)N1C [PP1575] | B (a compound having 3 or more and less than 10 is denoted as B) | B (a compound having 3 or more and less than 10 is denoted as B) | 11.1 nM
CCO[C@@H]1C[C@H]2C(=O)NC3(CC(C)(C)C3)C(=O)N(C)[C@@H](C3CCCC3)C(=O)N(C)[C@H](C(=O)N(C)CC)CC(=O)N(C)[C@@H](CC)C(=O)N[C@@H]([C@@H](C)CC)C(=O)N(C)CC(=O)N(C)[C@H]3C/C=C\CCN(C3=O)[C@@H](Cc3ccc(C(F)(F)F)cc3)C(=O)N(C)CC(=O)N[C@@H](CCc3cc(F)c(C(F)(F)F)c(F)c3)C(=O)N2C1 [PP1579] | A (a compound having 10 or more and less than 20 is denoted as A) | B (a compound having 3 or more and less than 10 is denoted as B) | 4.1 nM
CCO[C@@H]1C[C@H]2C(=O)NC3(CCC3)C(=O)N(C)[C@@H](C3CCCC3)C(=O)N(C)[C@H](C3CCCCC3)CC(=O)N(C)[C@@H](COC)C(=O)N[C@@H]([C@@H](C)CC)C(=O)N(C)CC(=O)N(C)[C@H]3C/C=C\CCN(C3=O)[C@@H](Cc3ccc(C(F)(F)F)cc3)C(=O)N(C)CC(=O)N[C@@H](CCc3cc(F)c(C(F)(F)F)c(F)c3)C(=O)N2C1 [PP1584] | B (a compound having 3 or more and less than 10 is denoted as B) | B (a compound having 3 or more and less than 10 is denoted as B) | 66.4 nM
